Results on two compounds are retold here after patent publication EP0425968A2, “Novel multiple layer transdermal drug administration system” (G.D. Searle & Co., priority 1989, dated 1991).

The nature of series [1]: Serum concentration time profile and pharmacokinetics after transdermal pad administration. Type of series: in vivo, rhesus monkeys. The conditions noted are these: rhesus monkey, read-out: AUC Area Under the Curve after transdermal administration. How it is done:
Serum concentration time profiles after transdermal pad administration. After overnight fasting, on the day of the experiment, monkeys were restrained in chairs and the chest areas were clipped to remove hair, avoiding any injury to the skin tissue. Skin surface was wiped with isopropyl alcohol swab and a 4 square centimeter portion of the pad was then applied to the chest area for 24 hours and was removed as described previously. Following the pad application, blood samples were removed at 0.00, 0.5, 1.00, 1.50, 3.00, 5.00, 7.00, 12.00, 24.00, 31.00, and 48.00 hours, centrifuged to separate serum and stored at -20 °C till the analysis.
Analysis of serum samples. Serum albuterol and internal standard bamethan sulphate were extracted into chloroform to remove polar interfering substances and reextracted in to the aqueous phase to eliminate nonpolar materials. The aqueous extracts were analyzed by an HPLC-Fluorescence method.

The conditions of series [2]: use for preterm labor; cited from earlier work.
A short description of another series: in vivo. The conditions noted are these: female, rhesus monkey, iv, 0.05 mg, AUC Area Under the Curve after intravenous administration. On the set-up: species or system rhesus monkeys. How it is done:
Serum concentration time profiles after intravenous administration: Four female rhesus monkeys, #388, #391, #423, and #430, were used in a cross over design for IV and pad bioavailability experiments. From each monkey, 7 ml of blood sample was removed on the previous day of the experiment, centrifuged to separate serum, and stored at -20°C till the analysis. This serum sample was used to make blanks and standards. […] The serum was separated from blood via centrifugation and stored at -20 °C till analysis.
Analysis of serum samples. […] The aqueous extracts were analyzed by an HPLC-Fluorescence method.

The conditions of series [3]: Figure 1; against prior art agents such as Azone® and isopropyl alcohol (IPA).

In the case of `CC(C)(C)NCC(O)c1ccc(O)c(CO)c1` (stereo not shown) [albuterol], the AUC in series [1] (Monkey #423, Transdermal dose 0.77 mg.Kg⁻¹) was determined as 1530 ng·h/mL; in series [1] (topical or ocular, Monkey #388, Transdermal dose 0.38 mg.Kg⁻¹), 712 ng·h/mL; in series [1] (topical or ocular, Monkey #391, Transdermal dose 0.39 mg.Kg⁻¹), 777 ng·h/mL; in series [1] (topical or ocular, Monkey #430, Transdermal dose 0.72 mg.Kg⁻¹), 1260 ng·h/mL; in the series “in vivo”, 70.7 ng·h/mL. Further, in series [2], the “plasma levels needed for uterine relaxation” value is on record as 8 to 33 nanograms per milliliter.

Turning to `CCO` [ethanol], the “effect of adjuvant agent on the flux of albuterol” value in series [3] is “most effective”.
